Literature values, collected in PubChem BioAssay AID1259409 (Chemical Carcinogenesis Research Information System (CCRIS), 2018).
Where “and” joins values, the source holds several entries; their conditions need not be identical. Identical values can stand only once.

Test system: rodent chemically induced tumor inhibition, incidence and multiplicity
Assay: CCRIS tumor inhibitor studies

CC1=C(/C=C/C(C)=C/C=C/C(C)=C\C(=O)Nc2ccc(O)cc2)C(C)(C)CCC1
tumour outcome (control, treated, inhibition, significance) (Carcinogen: N-BUTYL-N-(4-HYDROXYBUTYL)NITROSAMINE, 3817-11-6, Dose [Inhibitor]: 1.5 MMOL/KG DIET DAILY FOR 153 D STARTING ONE WK AFTER THE FINAL CARCINOGEN DOSE (STUDY DURATION: 210 D), Route [Inhibitor]: ORAL, Species: MOUSE, Strain/Sex: BDF/MALE, Target Tissue: Type of Lesion: URINARY BLADDER: TRANSITIONAL CELL CARCINOMA, Dose [Carcinogen]: 7.5 MG 1/WK FOR 8 WK, Promoter: NONE USED): 35/99 (35%), 21/99 (21%), 40%, p<0.05
tumour outcome (control, treated, inhibition, significance) (Carcinogen: N-BUTYL-N-(4-HYDROXYBUTYL)NITROSAMINE, 3817-11-6, Dose [Inhibitor]: 1.5 MMOL/KG/D IN DIET FOR 153 D STARTING 1 WK POST CARCINOGEN TREATMENT (STUDY DURATION: 210 D), Route [Inhibitor]: ORAL, Species: MOUSE, Strain/Sex: BDF/MALE, Target Tissue: Type of Lesion: URINARY BLADDER: TRANSITIONAL CELL CARCINOMA, Dose [Carcinogen]: 7.5 MG 1/WK FOR 8 WK, Promoter: NONE USED): 35/99 (35%), 21/99 (21%), 40%, p<0.05

O=C(O)/C=C/c1ccccc1
tumour outcome (control, treated, inhibition, significance) (Carcinogen: BENZO[A]PYRENE, 50-32-8, Dose [Inhibitor]: 0.06 MMOL/G OF DIET DAILY STARTING 7 D BEFORE AND CONTINUING THROUGH 3 D AFTER CARCINOGEN TREATMENT FOLLOWED BY OBSERVAT, Route [Inhibitor]: ORAL, Species: MOUSE, Strain/Sex: ICR/FEMALE, Target Tissue: Type of Lesion: FORESTOMACH: NEOPLASM, Dose [Carcinogen]: 1 MG IN 0.2 ML CORN OIL 2/WK FOR 4 WK, Promoter: NONE USED): 97%, 100%, -3%, not significant and 100%, 94%, 6%, not significant

CCc1cccc2c3c([nH]c12)C(CC)(CC(=O)O)OCC3 (stereo not given)
tumour outcome (control, treated, inhibition, significance) (Carcinogen: N-NITROSOBIS(2-HYDROXYPROPYL)AMINE, 53609-64-6, Dose [Inhibitor]: 0, 0.015% IN DIET FOR 8 WK BEGINNING POST CARCINOGEN TREATMENT (STUDY DURATION: 20 WK), Route [Inhibitor]: ORAL, Species: RAT, Strain/Sex: WISTAR/MALE, Target Tissue: Type of Lesion: LUNG: ADENOCARCINOMA, Dose [Carcinogen]: 2,000 PPM IN DRINKING WATER FOR 12 WK, Promoter: NONE): 60%, 46%, 23%, not calculated
tumour outcome (control, treated, inhibition, significance) (Carcinogen: N-NITROSOBIS(2-HYDROXYPROPYL)AMINE, 53609-64-6, Dose [Inhibitor]: 0, 0.015% IN DIET FOR 8 WK BEGINNING POST CARCINOGEN TREATMENT (STUDY DURATION: 20 WK), Route [Inhibitor]: ORAL, Species: RAT, Strain/Sex: WISTAR/MALE, Target Tissue: Type of Lesion: LUNG: SQUAMOUS CELL CARCINOMA, Dose [Carcinogen]: 2,000 PPM IN DRINKING WATER FOR 12 WK, Promoter: NONE): 20%, 0%, 100%, not calculated
tumour outcome (control, treated, inhibition, significance) (Carcinogen: N-NITROSOBIS(2-OXOPROPYL)AMINE [60599-38-4], Dose [Inhibitor]: 10 MG/KG BW ORALLY 3X A WEEK FOR 18 WK (STUDY DURATION: 22 WK), Route [Inhibitor]: ORAL, Species: HAMSTER, Strain/Sex: SYRIAN GOLDEN/FEMALE WITH BILIOENTEROSTOMY, Target Tissue: Type of Lesion: BILE DUCT: ADENOMA, Dose [Carcinogen]: 10 MG/KG BW EVERY 2 WK FOR 18 WK (STUDY DURATION: 22 WK)): 15/17 (88%), 11/18 (61%), 31%, not significant
tumour outcome (control, treated, inhibition, significance) (Carcinogen: N-NITROSOBIS(2-OXOPROPYL)AMINE [60599-38-4], Dose [Inhibitor]: 10 MG/KG BW ORALLY 3X A WEEK FOR 18 WK (STUDY DURATION: 22 WK), Route [Inhibitor]: ORAL, Species: HAMSTER, Strain/Sex: SYRIAN GOLDEN/FEMALE WITH BILIOENTEROSTOMY, Target Tissue: Type of Lesion: BILE DUCT: CARCINOMA, Dose [Carcinogen]: 10 MG/KG BW EVERY 2 WK FOR 18 WK (STUDY DURATION: 22 WK)): 15/17 (88%), 6/18 (33%), 63%, p< 0.01

Cc1c(C)c2c(c(C)c1O)CCC(C)(COc1ccc(CC3SC(=O)NC3=O)cc1)O2 (stereo not given)
tumour outcome (control, treated, inhibition, significance) (Carcinogen: 4-NITROQUINOLINE 1-OXIDE, 56-57-5, Dose [Inhibitor]: 0, 30 PPM IN DIET FOR 22 WK BEGINNING 1 WK POST FINAL CARCINOGEN DOSE (STUDY DURATION: 31 WK), Route [Inhibitor]: ORAL, Species: RAT, Strain/Sex: F344/MALE, Target Tissue: Type of Lesion: TONGUE: PAPILLOMA, Dose [Carcinogen]: 20 PPM IN DRINKING WATER FOR 8 WK): 3/24 (12.5%), 0/19 (0%), 100%, not significant
tumour outcome (control, treated, inhibition, significance) (Carcinogen: 4-NITROQUINOLINE 1-OXIDE, 56-57-5, Dose [Inhibitor]: 0, 30 PPM IN DIET FOR 22 WK BEGINNING 1 WK POST FINAL CARCINOGEN DOSE (STUDY DURATION: 31 WK), Route [Inhibitor]: ORAL, Species: RAT, Strain/Sex: F344/MALE, Target Tissue: Type of Lesion: TONGUE: SQUAMOUS CELL CARCINOMA, Dose [Carcinogen]: 20 PPM IN DRINKING WATER FOR 8 WK): 11/24 (45.8%), 5/19 (26.3%), 42.6%, not significant
tumour outcome (control, treated, inhibition, significance) (Carcinogen: 4-NITROQUINOLINE 1-OXIDE, 56-57-5, Dose [Inhibitor]: 0, 100 PPM IN DIET FOR 22 WK BEGINNING 1 WK POST FINAL CARCINOGEN DOSE (STUDY DURATION: 31 WK), Route [Inhibitor]: ORAL, Species: RAT, Strain/Sex: F344/MALE, Target Tissue: Type of Lesion: TONGUE: PAPILLOMA, Dose [Carcinogen]: 20 PPM IN DRINKING WATER FOR 8 WK): 3/24 (12.5%), 3/20 (15%), -20%, not significant
tumour outcome (control, treated, inhibition, significance) (Carcinogen: 4-NITROQUINOLINE 1-OXIDE, 56-57-5, Dose [Inhibitor]: 0, 100 PPM IN DIET FOR 22 WK BEGINNING 1 WK POST FINAL CARCINOGEN DOSE (STUDY DURATION: 31 WK), Route [Inhibitor]: ORAL, Species: RAT, Strain/Sex: F344/MALE, Target Tissue: Type of Lesion: TONGUE: SQUAMOUS CELL CARCINOMA, Dose [Carcinogen]: 20 PPM IN DRINKING WATER FOR 8 WK): 11/24 (45.8%), 1/20 (5%), 89.1%, p< 0.005
tumour outcome (control, treated, inhibition, significance) (Carcinogen: AZOXYMETHANE (25843-45-2), Dose [Inhibitor]: 0, 0.05% ADMINISTERED 1 WK AFTER END OF DEXTRAN SODIUM SULFATE TREATMENT FOR 14 WKS (STUDY DURATION: 17 WKS), Route [Inhibitor]: DIET, Species: MOUSE, Strain/Sex: CD-1/FEMALE (10,10)/(10,10), Target Tissue: Type of Lesion: COLON: ADENOCARCINOMA, Dose [Carcinogen]: 10 MG/KG ONCE, Promoter: DEXTRAN SODIUM SULFATE (9011-18-1)): 10/10 (100%), 4/10 (40%), 60%, p<0.01
tumour outcome (control, treated, inhibition, significance) (Carcinogen: AZOXYMETHANE (25843-45-2), Dose [Inhibitor]: 0, 0.05% ADMINISTERED 1 WK AFTER END OF DEXTRAN SODIUM SULFATE TREATMENT FOR 14 WKS (STUDY DURATION: 17 WKS), Route [Inhibitor]: DIET, Species: MOUSE, Strain/Sex: CD-1/FEMALE (10,10)/(10,10), Target Tissue: Type of Lesion: COLON: ADENOMA, Dose [Carcinogen]: 10 MG/KG ONCE, Promoter: DEXTRAN SODIUM SULFATE (9011-18-1)): 10/10 (100%), 9/10 (90%), 10%, not significant
tumour outcome (control, treated, inhibition, significance) (Carcinogen: N-METHYL-N-NITROSOUREA [684-93-5], Dose [Inhibitor]: 0.15% IN DIET FROM WKS 10 TO 52 (STUDY DURATION: 52 WKS), Route [Inhibitor]: ORAL (DIET), Species: MOUSE, Strain/Sex: PEROXISOME PROLIFERATOR- ACTIVATED RECEPTOR (PPAR GAMMA +/+)/MALE (11,9)/(13,11), Target Tissue: Type of Lesion: STOMACH: CARCINOMA, Dose [Carcinogen]: 240 PPM IN DRINKING WATER ON ALTERNATE WKS OVER A 10 WK PERIOD): (5/9) 56%, (1/11) 9%, 84%, p<0.01
tumour outcome (control, treated, inhibition, significance) (Carcinogen: N-METHYL-N-NITROSOUREA [684-93-5], Dose [Inhibitor]: 0.15% IN DIET FROM WKS 10 TO 52 (STUDY DURATION: 52 WKS), Route [Inhibitor]: ORAL (DIET), Species: MOUSE, Strain/Sex: PEROXISOME PROLIFERATOR- ACTIVATED RECEPTOR (PPAR GAMMA +/-)/MALE (23,19)/(19,15), Target Tissue: Type of Lesion: STOMACH: CARCINOMA, Dose [Carcinogen]: 240 PPM IN DRINKING WATER ON ALTERNATE WKS OVER A 10 WK PERIOD): (17/19) 90%, (12/15) 80%, 11%, not significant
